Measured values taken from patent US20050079549A1, “Methods for modeling GPCRs and for producing ligand blocking and receptor activating antibodies for same” (priority 2003, published 2005).

How the values were obtained:
[1] = biological target: T1, human S1P4 (formerly Edg 6) (Homo sapiens, UniProt O95977); assay: phospho ERK 1/2 ELISA in CHO cells stably transfected with human S1P4; assay type: cell-based; details: CHO EDG6 (S1P4); 10 nM S1P, no antibody
T1 sequence (O95977 1-384): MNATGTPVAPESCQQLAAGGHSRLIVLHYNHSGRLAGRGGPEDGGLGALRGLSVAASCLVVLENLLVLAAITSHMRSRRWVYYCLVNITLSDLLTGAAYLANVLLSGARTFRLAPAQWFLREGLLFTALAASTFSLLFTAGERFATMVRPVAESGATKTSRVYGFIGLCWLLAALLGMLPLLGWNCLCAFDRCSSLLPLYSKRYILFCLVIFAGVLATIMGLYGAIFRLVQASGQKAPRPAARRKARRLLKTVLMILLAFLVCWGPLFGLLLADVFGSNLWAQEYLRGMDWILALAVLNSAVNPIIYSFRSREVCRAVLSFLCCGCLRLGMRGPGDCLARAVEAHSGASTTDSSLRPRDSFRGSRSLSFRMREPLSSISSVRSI
Procedure: (§1) For example, CHO cells that are stably transfected with human S1P4 (formerly Edg 6) a GPCR (g protein coupled receptor) for sphingosine 1-phosphate (S1P) a lipid growth factor mediator or mock transfected CHO control cells are washed in DMEM and starved of serum for 4 hours at 37° C.
(§2) One million cells in 1 ml serum free DMEM were challenged with monoclonal antibodies that had been raised against a S1P4 cyclic molecular mimic loop 1B structure described herein for 10 minutes at room temperature. Monoclonal antibody supernatants containing DMEM with 10% fetal bovine serum antibiotics, L glutamine media supplements, were pretreated with cell culture tested Norite™ (Sigma Chemical Company) for 24 hours at 4 C to remove endogenous S1P from the media prior to the addition of supernatant to cells. Following antibody addition and incubation, 10 nM S1P was added for 15 minutes at 37 C. Controls of media alone, media and Norite™, media and 10 nM S1P, media-Norite™ and SIP, and media PMA were included. [drawing]

[2] = system: mock transfected CHO control cells; assay: phospho ERK 1/2 ELISA in mock transfected CHO control cells; assay type: cell-based; details: 10 nM S1P, no antibody
Procedure: as §1, §2

[3] = NMR spectra of mixtures of loop peptide and O-phosphoethanolamine; assay type: binding; details: mixture with O-phosphoethanolamine
Source text: NMR is used to characterize the interactions between the extracellular loops and O-phosphoethanolamine, a mimic of the S1P4 endogenous ligand to determine if potential for ligand binding exists.
The most important NMR result for the characterization of the interaction between the constrained peptides and O-phosphoethanolamine are heteronuclear 2D-NOE that allow derivation of the distances between the cationic nitrogens of R121 and R287 and the phosphate phosphorous atom of O-phosphoethanolamine. Additional information is derived from chemical shift changes of the protons in residues of the loop peptides upon addition of the phosphoethanolamine as well as chemical shift changes of protons on the phosphoethanolamine. Such chemical shift changes are indicative of changes in the electronic environment of these protons and are used in high-throughput NMR assays of ligand binding. (Shuker, S. B., Hajduk, P. J., Meadows, R. P. & Fesik, S. W. Discovering High-Affinity Ligands for Proteins: SAR by NMR. Science 274, 1531-1534 (1996)).

CCCCCCCCCCCCC/C=C/[C@@H](O)[C@@H](N)COP(=O)(O)O [Clone S1P, sphingosine 1-phosphate]
phospho ERK 1/2 [1]: 1.280 ng/mL | phospho ERK 1/2 [2]: 0.000 ng/mL

TGAYLANVLLSGARTFRLAPAQWFLREGCLFT [Loop 1 B, conformationally constrained (disulfide) peptide mimicking S1P4 extracellular loop 1]
ligand binding by NMR [3]: reflect ligand binding

FLVWGPLFGLLLADVFGSNLWAQEYLRGMDWILAAVL [Loop 3, conformationally constrained peptide mimicking S1P4 extracellular loop 3]
ligand binding by NMR [3]: reflect ligand binding
